Laboratory results reported in patent publication US11419858B2, “Composition and methods for treating heritable pulmonary artery hypertension associated with nonsense mutations” (The Lundquist Institute, priority 2019, dated 2022).
“Also recorded” adds a separate entry of the source.

Key:
[1] = test system: WT (C57BL/6J) mice; assay: Acute safety/toxicity, single dose; assay type: in vivo; settings: for ALB / ALP / ALT / AMY / BUN / CA+ / CRE / Cholesterol / GLOB / GLU / NA+ / PHOS / TBIL / TP / Triglyceride: one dose, a week later
Experimental: Both acute (a single dose of GJ103 administration) and chronic (4 weekly doses of GJ103 administration) in vivo toxicity studies were performed.
Acute Safety/Toxicity. The acute safety/toxicity of GJ103 study involved 3-month old WT (C57BL/6J) mice (N=30). Mice were administered GJ103 intraperitoneally (i.p.) at doses of 10, 25, 50 or 250 mg/kg (N=5 per group) and sacrificed 1 week later. Untreated or vehicle treated mice served as controls. […] VetScan Comprehensive Diagnostic profile, and HM5 hematology systems (Abaxis, Inc) were used to perform complete blood count, basal metabolic profile (serum electrolytes and glucose), liver [total protein, albumin, globulin, total bilirubin, serum alanine aminotransferase (ALT), serum aspartate transferase (AST), alkaline phosphatase (ALP), and serum amylase (AMY)], renal [blood urea nitrogen (BUN), and creatinine (CRE)], and lipid panels (cholesterol and triglyceride).

[2] = test system: BMPR2 nonsense mutations (R899X, R584X and R321X); assay: Readthrough of BMPR2 nonsense mutations in patient BOECs; assay type: cell-based, human

## COc1cccc(-n2c(SCC(=O)O)nnc2-c2ccccn2)c1 [GJ103, 2-((4-(3-methoxyphenyl)-5-(pyridin-2-yl)-4H-1,2,4-triazol-3-yl)thio)acetic acid]
[1]; GJ103 10 mg/kg i.p.
  ALB: 4.1 ± 0.37 g/dL
  ALP: 47 ± 12.1 U/L
  ALT: 29 ± 5.13 U/L
  AMY: 720 ± 41.44 mg/dL
  BUN: 27 ± 2.51 mg/dL
  CA+: 9.9 ± 0.82 mg/dL
  CRE: 0.3 ± 0.05 mg/dL
  Cholesterol: <100 mg/dL
  GLOB: 1.5 ± 0.49 g/dL
  GLU: 155 ± 13.1 mg/dL
  NA+: 149 ± 1.48 mM
  PHOS: 7.4 ± 1.36 mg/dL
  TBIL: 0.2 ± 0.00 mg/dL
  TP: 5.1 ± 0.66 g/dL
  Triglyceride: 79 ± 6.78 mg/dL
[1]; GJ103 25 mg/kg i.p.
  ALB: 4.0 ± 0.30 g/dL
  ALP: 42 ± 27.1 U/L
  ALT: 24 ± 2.12 U/L
  AMY: 833 ± 73.45 mg/dL
  BUN: 19 ± 3.79 mg/dL
  CA+: 10.5 ± 0.59 mg/dL
  CRE: 0.3 ± 0.07 mg/dL
  Cholesterol: <100 mg/dL
  GLOB: 1.6 ± 0.31 g/dL
  GLU: 134 ± 4.58 mg/dL
  NA+: 151 ± 1.73 mM
  PHOS: 7.5 ± 0.35 mg/dL
  TBIL: 0.2 ± 0.06 mg/dL
  TP: 5.7 ± 0.12 g/dL
  Triglyceride: 71 ± 8.80 mg/dL
[1]; GJ103 50 mg/kg i.p.
  ALB: 4.1 ± 0.30 g/dL
  ALP: 56 ± 22.1 U/L
  ALT: 30 ± 2.83 U/L
  AMY: 796 ± 129.65 mg/dL
  BUN: 20 ± 1.53 mg/dL
  CA+: 10.0 ± 0.35 mg/dL
  CRE: 0.2 ± 0.06 mg/dL
  Cholesterol: <100 mg/dL
  GLOB: 1.2 ± 0.12 g/dL
  GLU: 184 ± 30.27 mg/dL
  NA+: 149 ± 2.00 mM
  PHOS: 8.4 ± 0.92 mg/dL
  TBIL: 0.2 ± 0.06 mg/dL
  TP: 5.4 ± 0.23 g/dL
  Triglyceride: 79 ± 7.30 mg/dL
[1]; GJ103 250 mg/kg i.p.
  ALB: 4.4 ± 0.21 g/dL
  ALP: 43 ± 10.5 U/L
  ALT: 34 ± 7.07 U/L
  AMY: 1178 ± 480.67 mg/dL
  BUN: 24 ± 2.31 mg/dL
  CA+: 10.6 ± 0.60 mg/dL
  CRE: 0.3 ± 0.07 mg/dL
  Cholesterol: <100 mg/dL
  GLOB: 1.4 ± 0.06 g/dL
  GLU: 191 ± 63.58 mg/dL
  NA+: 149 ± 3.00 mM
  PHOS: 8.1 ± 2.48 mg/dL
  TBIL: 0.3 ± 0.00 mg/dL
  TP: 5.7 ± 0.26 g/dL
  Triglyceride: 66 ± 9.57 mg/dL
[1]; acute study, vs untreated or vehicle controls
  LDH levels in lung, liver, kidney and heart tissue lysates: no statistically significant differences
[1]; single i.p. dose 10, 25, 50 or 250 mg/kg
  overt signs of toxicity (feeding, behavioral changes, body weight, breathing): did not show any overt signs of toxicity
[1]; single i.p. dose 10, 25, 50 or 250 mg/kg, Table 1
  toxicity by blood count, metabolic, liver, renal and lipid panels: no evidence of significant toxicity
[2]
  readthrough of BMPR2 nonsense mutations / BMPR2 protein restoration: reads through all three clinically relevant nonsense mutations; also recorded: increased expression and functional restoration of the BMPR2 protein
